PubChem BioAssay AID192 (DTP/NCI, 2004)
“And” between values parts separate entries of the source, which are not always exact repeats. Equal entries are not always repeated. Toxic doses and inconclusive results are not listed. How the source made its calls: active means survival T/C of 150% or more; inactive means T/C below 125% in these data.

Test system: BDF1 mice, B16 melanoma ip, median survival T/C
Test: NCI In Vivo Anticancer Drug Screen. Data for tumor model B16 Melanoma (intraperitoneal) in B6D2F1 (BDF1) mice
Conditions: endpoint: median survival time, higher = longer survival
Procedure, shortened: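 Vehicle-treated animals serve as the reference (C); treated animals (T) are scored for survival or tumor size after tumor transplantation.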

[1] = dose: 200.0 mg/kg/injection, schedule: Q01DX009 (ip), vehicle: saline with Tween-80
[2] = dose: 400.0 mg/kg/injection, schedule: Q01DX009 (ip), vehicle: saline with Tween-80
[3] = dose: 100.0 mg/kg/injection, schedule: Q04DX003 (ip), vehicle: Klucel (hydroxypropylcellulose) (HPC)
[4] = dose: 200.0 mg/kg/injection, schedule: Q04DX003 (ip), vehicle: Klucel (hydroxypropylcellulose) (HPC)
[5] = dose: 400.0 mg/kg/injection, schedule: Q04DX003 (ip), vehicle: Klucel (hydroxypropylcellulose) (HPC)
[6] = dose: 100.0 mg/kg/injection, schedule: Q01DX009 (ip), vehicle: Klucel (hydroxypropylcellulose) (HPC)
[7] = dose: 200.0 mg/kg/injection, schedule: Q01DX009 (ip), vehicle: Klucel (hydroxypropylcellulose) (HPC)
[8] = dose: 400.0 mg/kg/injection, schedule: Q01DX009 (ip), vehicle: Klucel (hydroxypropylcellulose) (HPC)
[9] = dose: 100.0 mg/kg/injection, schedule: Q01DX009 (ip), vehicle: saline with Tween-80
[10] = dose: 50.0 mg/kg/injection, schedule: Q01DX009 (ip), vehicle: saline with Tween-80

Measured: T/C

Clc1cccc(/C=C2\c3cc(Cl)ccc3-c3c(Cl)cc(Cl)cc32)c1
inactive: [1] 100 % of control | [2] 97 % of control | dose: 800.0 mg/kg/injection, schedule: Q01DX009 (ip), vehicle: saline with Tween-80 93 % of control

CS(=O)(=O)OCC1CCCCO1 (configuration not stated)
inactive: [3] 92 % of control and 100 % of control | [4] 100 % of control | [5] 104 % of control and 108 % of control

COc1ccc2c3c(c4cc(OC)c(OC)cc4c2c1)C[C@H]1CCCCN1C3
inactive: dose: 0.13 mg/kg/injection, schedule: Q01DX009 (ip), vehicle: saline 114 % of control | dose: 0.25 mg/kg/injection, schedule: Q01DX009 (ip), vehicle: saline 109 % of control | dose: 0.5 mg/kg/injection, schedule: Q01DX009 (ip), vehicle: saline 104 % of control

CCOC(=O)NO
inactive: dose: 75.0 mg/kg/injection, schedule: Q01DX009 (ip), vehicle: saline 100 % of control | dose: 150.0 mg/kg/injection, schedule: Q01DX009 (ip), vehicle: saline 105 % of control | dose: 300.0 mg/kg/injection, schedule: Q01DX009 (ip), vehicle: saline 103 % of control

O=c1nc(NC(=S)Nc2ccn(C3OC(CO)C(O)C3O)c(=O)n2)ccn1C1OC(CO)C(O)C1O (configuration not stated)
inactive: dose: 4.0 mg/kg/injection, schedule: Q01DX009 (ip), vehicle: saline sonified 97 % of control | dose: 8.0 mg/kg/injection, schedule: Q01DX009 (ip), vehicle: saline sonified 102 % of control | dose: 8.0 mg/kg/injection, schedule: Q01DX009 (ip), vehicle: saline with Tween-80 95 % of control | dose: 16.0 mg/kg/injection, schedule: Q01DX009 (ip), vehicle: saline sonified 100 % of control | dose: 16.0 mg/kg/injection, schedule: Q01DX009 (ip), vehicle: saline with Tween-80 108 % of control | dose: 32.0 mg/kg/injection, schedule: Q01DX009 (ip), vehicle: saline sonified 102 % of control | dose: 32.0 mg/kg/injection, schedule: Q01DX009 (ip), vehicle: saline with Tween-80 95 % of control | dose: 64.0 mg/kg/injection, schedule: Q01DX009 (ip), vehicle: saline with Tween-80 104 % of control

CCCCCCCCCCCCCC[N+](C)(C)CCCCCCCCCCCCCC
inactive: dose: 6.0 mg/kg/injection, schedule: Q01DX009 (ip), vehicle: saline 88 % of control

C=C(C)C(=O)O[C@H]1[C@H]2[C@H](OC(=O)[C@H]2C)[C@H](O)[C@@H](C)[C@@H]2C=CC(=O)[C@]21C
inactive: dose: 7.5 mg/kg/injection, schedule: Q01DX009 (ip), vehicle: saline 100 % of control | dose: 15.0 mg/kg/injection, schedule: Q01DX009 (ip), vehicle: saline with Tween-80 98 % of control | dose: 15.0 mg/kg/injection, schedule: Q01DX009 (ip), vehicle: saline 106 % of control | dose: 30.0 mg/kg/injection, schedule: Q01DX009 (ip), vehicle: saline with Tween-80 114 % of control | dose: 30.0 mg/kg/injection, schedule: Q01DX009 (ip), vehicle: saline 117 % of control | dose: 60.0 mg/kg/injection, schedule: Q01DX009 (ip), vehicle: saline with Tween-80 119 % of control

COc1ccc2c(c1)C(=O)CCN2
inactive: [3] 114 % of control | [4] 107 % of control | [5] 99 % of control

CCC[N+](CCC)=c1ccc2nc3c(C)cc(N(CC)CC)cc3sc-2c1
inactive: dose: 0.15 mg/kg/injection, schedule: Q01DX009 (ip), vehicle: saline 102 % of control | dose: 0.3 mg/kg/injection, schedule: Q01DX009 (ip), vehicle: saline 102 % of control | dose: 0.6 mg/kg/injection, schedule: Q01DX009 (ip), vehicle: saline with Tween-80 92 % of control | dose: 0.6 mg/kg/injection, schedule: Q01DX009 (ip), vehicle: saline 102 % of control | dose: 1.2 mg/kg/injection, schedule: Q01DX009 (ip), vehicle: saline 105 % of control

CNc1ncnc2c1cnn2C
inactive: dose: 10.0 mg/kg/injection, schedule: Q01DX009 (ip), vehicle: Klucel (hydroxypropylcellulose) (HPC) 97 % of control | dose: 20.0 mg/kg/injection, schedule: Q01DX009 (ip), vehicle: Klucel (hydroxypropylcellulose) (HPC) 89 % of control | dose: 40.0 mg/kg/injection, schedule: Q01DX009 (ip), vehicle: Klucel (hydroxypropylcellulose) (HPC) 89 % of control

[N-]=C(CC(=O)c1ccccc1)c1ccccc1.[N-]=C(CC(=O)c1ccccc1)c1ccccc1.[Ni+2]
inactive: dose: 3.0 mg/kg/injection, schedule: Q04DX003 (ip), vehicle: Klucel (hydroxypropylcellulose) (HPC) 86 % of control | dose: 6.0 mg/kg/injection, schedule: Q04DX003 (ip), vehicle: Klucel (hydroxypropylcellulose) (HPC) 93 % of control | dose: 12.0 mg/kg/injection, schedule: Q04DX003 (ip), vehicle: Klucel (hydroxypropylcellulose) (HPC) 88 % of control

CC1(C)N=C(N)N=C(N)N1c1ccc(CNC(=O)Nc2ccc(S(=O)(=O)F)cc2)cc1
inactive: dose: 50.0 mg/kg/injection, schedule: Q04DX003 (ip), vehicle: saline 112 % of control

FC(F)(F)c1ccc(Cl)c(NC2=NCCCS2)c1
inactive: dose: 50.0 mg/kg/injection, schedule: Q01DX009 (ip), vehicle: Klucel (hydroxypropylcellulose) (HPC) 96 % of control | [6] 89 % of control

O=C(CC(CC(=O)c1ccccc1)c1ccco1)c1ccccc1
inactive: [6] 93 % of control | [7] 93 % of control | [8] 93 % of control

CC(=N\O)/C(C)=N/O.CC(=N\O)/C(C)=N/O.[Pd]
inactive: dose: 0.75 mg/kg/injection, schedule: Q01DX009 (ip), vehicle: Klucel (hydroxypropylcellulose) (HPC) 96 % of control | dose: 1.57 mg/kg/injection, schedule: Q01DX009 (ip), vehicle: Klucel (hydroxypropylcellulose) (HPC) 95 % of control | dose: 3.13 mg/kg/injection, schedule: Q01DX009 (ip), vehicle: Klucel (hydroxypropylcellulose) (HPC) 96 % of control | dose: 6.25 mg/kg/injection, schedule: Q01DX009 (ip), vehicle: Klucel (hydroxypropylcellulose) (HPC) 94 % of control

O=C(O)C(/C=C/c1ccccc1)c1ccccc1 (configuration not stated)
inactive: [9] 95 % of control | [2] 105 % of control

CCc1cc(C)cc(OC(=O)Nc2ccccc2)c1
inactive: [9] 97 % of control | [1] 93 % of control | [2] 100 % of control

CCC1(c2ccccc2)SC(=O)NC1=O (configuration not stated)
inactive: [10] 98 % of control | [9] 104 % of control

ClC1CCC[N-]C1.ClC1CCC[N-]C1.O=C(O)CC(=O)O.[Pt+2] (configuration not stated)
inactive: dose: 12.5 mg/kg/injection, schedule: Q01DX009 (ip), vehicle: saline with Tween-80 96 % of control | dose: 25.0 mg/kg/injection, schedule: Q01DX009 (ip), vehicle: saline with Tween-80 95 % of control | [10] 94 % of control | [9] 93 % of control | [1] 89 % of control

Clc1ccc(/C=N\N=C\c2ccc(Cl)c(Cl)c2)cc1Cl
inactive: [6] 90 % of control | [7] 90 % of control

Cc1ccc([N+](=O)[O-])c(OC(=O)Nc2ccccc2Cl)c1
inactive: [3] 100 % of control | [4] 93 % of control | [5] 93 % of control

NC(=O)c1csc(C2OC(CO)C(O)C2O)n1 (configuration not stated)
inactive: dose: 25.0 mg/kg/injection, schedule: Q01DX009 (ip), vehicle: water 103 % of control | dose: 50.0 mg/kg/injection, schedule: Q01DX009 (ip), vehicle: water 99 % of control | dose: 100.0 mg/kg/injection, schedule: Q01DX009 (ip), vehicle: water 104 % of control | dose: 200.0 mg/kg/injection, schedule: Q01DX009 (ip), vehicle: water 111 % of control | dose: 400.0 mg/kg/injection, schedule: Q01DX009 (ip), vehicle: water 110 % of control | dose: 800.0 mg/kg/injection, schedule: Q01DX009 (ip), vehicle: water 99 % of control

C1CC[N-]CC1.CC(=N\O)/C(C)=N/O.CC(=N\O)/C(C)=N/O.[Co+2].[c-]1ccccc1
inactive: [6] 90 % of control | [7] 93 % of control | [8] 90 % of control
